One block for each compound: values may come before it.
Tests used:
human orexin-2 receptor = human orexin-2 receptor (Homo sapiens (Human), UniProt O43614); test: FLIPR Ca2+ Flux Assay, CHO cells expressing orexin-2 receptor; type: cell-based; details: 70 pM Ala-6,12 orexin-A agonist, read-out: hOX2R FLIPR IC50
Description: The utility of the compounds in accordance with the present invention as orexin receptor OX1R and/or OX2R antagonists may be readily determined without undue experimentation by methodology well known in the art, including the “FLIPR Ca^2+ Flux Assay” (Okumura et al., Biochem. Biophys. Res. Comm. 280:976-981, 2001). In a typical experiment the OX1 and OX2 receptor antagonistic activity of the compounds of the present invention was determined in accordance with the following experimental method. For intracellular calcium measurements, Chinese hamster ovary (CHO) cells expressing the rat orexin-1 receptor or the human orexin-2 receptor, are grown in Iscove's modified DMEM containing 2 mM L-glutamine, […], 1% hypoxanthine-thymidine supplement, 100 U/ml penicillin, 100 μg/ml streptomycin and 10% heat-inactivated fetal calf serum (FCS). The cells are seeded at 20,000 cells/well into Becton-Dickinson black 384-well clear bottom sterile plates coated with poly-D-lysine. All reagents were from GIBCO-Invitrogen Corp. The seeded plates are incubated overnight at 37° C. and 5% CO2. Ala-6,12 human orexin-A as the agonist is prepared as a 1 mM stock solution in 1% bovine serum albumin (BSA) and diluted in assay buffer (HBSS containing 20 mM HEPES, 0.1% BSA and 2.5 mM probenecid, pH7.4) for use in the assay at a final concentration of 70 pM. Test compounds are prepared as 10 mM stock solution in DMSO, then diluted in 384-well plates, first in DMSO, then assay buffer. On the day of the assay, cells are washed 3 times with 100 μl assay buffer and then incubated for 60 min (37° C., 5% CO2) in 60 μl assay buffer containing 1 μM Fluo-4AM ester, 0.02% pluronic acid, and 1% BSA. The dye loading solution is then aspirated and cells are washed 3 times with 100 μl assay buffer. 30 μl of that same buffer is left in each well. Within the Fluorescent Imaging Plate Reader (FLIPR, Molecular Devices), test compounds are added to the plate in a volume of 25 μl, incubated for 5 min and finally 25 μl of agonist is added. Fluorescence is measured for each well at 1 second intervals for 5 minutes and the height of each fluorescence peak is compared to the height of the fluorescence peak induced by 70 pM Ala-6,12 orexin-A with buffer in place of antagonist. For each antagonist, IC50 value (the concentration of compound needed to inhibit 50% of the agonist response) is determined. Alternatively, compound potency can be assessed by a radioligand binding assay (described in Bergman et. al. Bioorg. Med. Chem. Lett. 2008, 18, 1425-1430) in which the inhibition constant (Ki) is determined in membranes prepared from CHO cells expressing either the OX1 or OX2 receptor. The intrinsic orexin receptor antagonist activity of a compound which may be used in the present invention may be determined by these assays.

hOX1R = hOX1R (Homo sapiens, UniProt O43613); test: FLIPR Ca2+ Flux Assay, CHO cells expressing orexin-1 receptor; type: cell-based; details: 70 pM Ala-6,12 orexin-A agonist

Chain of human orexin-2 receptor (O43614 whole entry): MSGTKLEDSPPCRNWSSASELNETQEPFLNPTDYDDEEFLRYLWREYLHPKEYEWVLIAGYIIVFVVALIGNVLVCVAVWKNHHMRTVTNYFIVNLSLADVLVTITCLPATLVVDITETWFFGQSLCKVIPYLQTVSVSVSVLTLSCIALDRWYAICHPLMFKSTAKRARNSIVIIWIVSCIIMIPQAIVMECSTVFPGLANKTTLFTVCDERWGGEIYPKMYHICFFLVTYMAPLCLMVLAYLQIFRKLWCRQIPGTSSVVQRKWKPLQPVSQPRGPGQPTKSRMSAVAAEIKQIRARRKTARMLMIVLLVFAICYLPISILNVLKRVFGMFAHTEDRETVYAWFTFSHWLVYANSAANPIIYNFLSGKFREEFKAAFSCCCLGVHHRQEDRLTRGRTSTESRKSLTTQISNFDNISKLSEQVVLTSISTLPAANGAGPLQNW

Structure (SMILES): C[C@@H]1CC[C@@H](Nc2nccc3c2C(=O)OC3(C)C)CN1C(=O)c1ccccc1-n1ncnn1 [Example 41, 1,1-Dimethyl-4-{[(3R,6R)-6-methyl-1-{[2-(2H-tetrazol-2-yl)phenyl]carbonyl}piperidin-3-yl]amino}furo[3,4-c]pyridin-3(1H)-one]
IC50 (human orexin-2 receptor): 15 nM
IC50 (hOX1R): 10000 nM

Structure (SMILES): C[C@@H]1CC[C@@H](Oc2nccc3c2C(=O)OC3(C)C)CN1C(=O)c1ccsc1-c1ncccn1 [Example 25, 1,1-dimethyl-4-(((3R,6R)-6-methyl-1-(2-(pyrimidin-2-yl)thiophene-3-carbonyl)piperidin-3-yl)oxy)furo[3,4-c]pyridin-3(1H)-one]
IC50 (human orexin-2 receptor): 44 nM
IC50 (hOX1R): 9110 nM

Structure (SMILES): C[C@@H]1CC[C@@H](Oc2nccc3c2C(=O)OC3(C)C)CN1C(=O)c1ccccc1-n1ncnn1 [Example 21, 1,1-Dimethyl-4-{[(3R,6R)-6-methyl-1-{[2-(2H-tetrazol-2-yl)phenyl]carbonyl}piperidin-3-yl]oxy}furo[3,4-c]pyridin-3(1H)-one]
IC50 (human orexin-2 receptor): 109 nM
IC50 (hOX1R): 10000 nM

Structure (SMILES): C[C@@H]1CC[C@@H](Oc2nccc3c2COC3=O)CN1C(=O)c1cscc1-c1ncccn1 [Example 35, 4-({(3R,6R)-6-methyl-1-[(4-pyrimidin-2-ylthiophen-3-yl)carbonyl]piperidin-3-yl}oxy)furo[3,4-c]pyridin-1(3H)-one]
IC50 (human orexin-2 receptor): 20 nM
IC50 (hOX1R): 10000 nM

Structure (SMILES): Cc1noc(-c2cc(F)ccc2C(=O)N2C[C@H](Oc3nccc4c3C(=O)OC4(C)C)CC[C@H]2C)n1 [Example 19, 4-{[(3R,6R)-1-{[4-fluoro-2-(3-methyl-1,2,4-oxadiazol-5-yl)phenyl]carbonyl}-6-methylpiperidin-3-yl]oxy}-1,1-dimethylfuro[3,4-c]pyridin-3(1H)-one]
IC50 (human orexin-2 receptor): 382 nM
IC50 (hOX1R): 10000 nM

Structure (SMILES): C[C@@H]1CC[C@@H](Oc2nccc3c2COC3=O)CN1C(=O)c1ccc(F)cc1-n1nccn1 [Example 32, 4-{[(3R,6R)-1-{[4-fluoro-2-(2H-1,2,3-triazol-2-yl)phenyl]-carbonyl}-6-methyl-piperidin-3-yl]oxy}furo[3,4-c]pyridin-1(3H)-one]
IC50 (human orexin-2 receptor): 15 nM
IC50 (hOX1R): 8290 nM

Structure (SMILES): C[C@@H]1CC[C@@H](Oc2nccc3c2C(=O)OC3(C)C)CN1C(=O)c1cccc(F)c1-c1ncccn1 [Example 27, 4-({(3R,6R)-1-[(3-fluoro-2-pyrimidin-2-ylphenyl)carbonyl]-6-methylpiperidin-3-yl}oxy)-1,1-dimethylfuro[3,4-c]pyridin-3(1H)-one]
IC50 (human orexin-2 receptor): 139 nM
IC50 (hOX1R): 10000 nM

Structure (SMILES): C[C@@H]1CC[C@@H](Oc2nccc3c2C(=O)OC3(C)C)CN1C(=O)c1cccc(F)c1-n1nccn1 [Example 7, 4-{[(3R,6R)-1-{[3-fluoro-2-(2H-1,2,3-triazol-2-yl)phenyl]carbonyl}-6-methylpiperidin-3-yl]oxy}-1,1-dimethylfuro[3,4-c]pyridin-3(1H)-one]
IC50 (human orexin-2 receptor): 132 nM
IC50 (hOX1R): 10000 nM

Structure (SMILES): Cc1ccc(-n2nccn2)c(C(=O)N2C[C@H](Oc3nccc4c3C(=O)OC4(C)C)CC[C@H]2C)c1 [Example 5, 1,1-dimethyl-4-{[(3R,6R)-6-methyl-1-{[5-methyl-2-(2H-1,2,3-triazol-2-yl)phenyl]carbonyl}piperidin-3-yl]oxy}furo[3,4-c]pyridin-3(1H)-one]
IC50 (human orexin-2 receptor): 54 nM
IC50 (hOX1R): 2510 nM

Structure (SMILES): C[C@@H]1CC[C@@H](Oc2nccc3c2COC3=O)CN1C(=O)c1ccccc1-n1ncnn1 [Example 34, 4-{[(3R,6R)-6-methyl-1-{[2-(2H-tetrazol-2-yl)phenyl]carbonyl}-piperidin-3-yl]oxy}-furo[3,4-c]pyridin-1(3H)-one]
IC50 (human orexin-2 receptor): 30 nM
IC50 (hOX1R): 10000 nM

Structure (SMILES): Cc1nc(-c2ccc(F)cc2C(=O)N2C[C@H](Oc3nccc4c3C(=O)OC4(C)C)CC[C@H]2C)no1 [Example 14, 4-{[(3R,6R)-1-{[5-fluoro-2-(5-methyl-1,2,4-oxadiazol-3-yl)phenyl]carbonyl}-6-methylpiperidin-3-yl]oxy}-1,1-dimethylfuro[3,4-c]pyridin-3(1H)-one]
IC50 (human orexin-2 receptor): 76 nM
IC50 (hOX1R): 10000 nM

Structure (SMILES): C[C@@H]1CC[C@@H](Nc2nccc3c2C(=O)OC3(C)C)CN1C(=O)c1ccsc1-c1ncccn1 [Example 44, 1,1-Dimethyl-4-({(3R,6R)-6-methyl-1-[(2-pyrimidin-2-ylthiophen-3-yl)carbonyl]piperidin-3-yl}amino)furo[3,4-c]pyridin-3(1H)-one]
IC50 (human orexin-2 receptor): 28 nM
IC50 (hOX1R): 1000 nM

Structure (SMILES): C[C@@H]1CC[C@@H](Oc2nccc3c2COC3=O)CN1C(=O)c1ccsc1-n1nccn1 [Example 29, 4-{[(3R,6R)-6-methyl-1-{[2-(2H-1,2,3-triazol-2-yl)thiophen-3-yl]carbonyl}piperidin-3-yl]oxy}furo[3,4-c]pyridin-1(3H)-one]
IC50 (human orexin-2 receptor): 16 nM
IC50 (hOX1R): 3160 nM

Structure (SMILES): C[C@@H]1CC[C@@H](Oc2nccc3c2C(=O)OC3(C)C)CN1C(=O)c1ccsc1-n1nccn1 [Example 20, 1,1-Dimethyl-4-{[(3R,6R)-6-methyl-1-{[2-(2H-1,2,3-triazol-2-yl)thiophen-3-yl]carbonyl}piperidin-3-yl]oxy}furo[3,4-c]pyridin-3(1H)-one]
IC50 (human orexin-2 receptor): 39 nM
IC50 (hOX1R): 10000 nM

Structure (SMILES): C[C@@H]1CC[C@@H](Oc2nccc3c2C(=O)OC3(C)C)CN1C(=O)c1cc(Cl)ccc1-n1nccn1 [Example 3, 4-{[(3R,6R)-1-{[5-chloro-2-(2H-1,2,3-triazol-2-yl)phenyl]carbonyl}-6-methylpiperidin-3-yl]oxy}-1,1-dimethylfuro[3,4-c]pyridin-3(1H)-one]
IC50 (human orexin-2 receptor): 42 nM
IC50 (hOX1R): 3740 nM

IC50 (human orexin-2 receptor): 20 nM
IC50 (hOX1R): ≥ 10000 nM
Structure (SMILES): C[C@@H]1CC[C@@H](Oc2nccc3c2COC3=O)CN1C(=O)c1ccccc1CS(C)(=O)=O [Example 33, 4-{[(3R,6R)-6-methyl-1-({2-[(methyl-sulfonyl)methyl]-phenyl}carbonyl)-piperidin-3-yl]oxy}furo[3,4-c]pyridin-1(3H)-one]

Structure (SMILES): C[C@@H]1CC[C@@H](Oc2nccc3c2COC3=O)CN1C(=O)c1ccccc1-c1ncccn1 [Example 36, 4-({(3R,6R)-6-methyl-1-[(2-pyrimidin-2-ylphenyl)car-bonyl]piperidin-3-yl}oxy)furo[3,4-c]pyridin-1(3H)-one]
IC50 (human orexin-2 receptor): 20 nM
IC50 (hOX1R): 3100 nM

Structure (SMILES): C[C@@H]1CC[C@@H](Oc2nccc3c2C(=O)OC3(C)C)CN1C(=O)c1c(F)cccc1-n1nccn1 [Example 2, 4-{[(3R,6R)-1-{[2-Fluoro-6-(2H-1,2,3-triazol-2-yl)phenyl]carbonyl}-6-methylpiperidin-3-yl]oxy}-1,1-dimethylfuro[3,4-c]pyridin-3(1H)-one]
IC50 (human orexin-2 receptor): 44 nM
IC50 (hOX1R): 10000 nM

Structure (SMILES): C[C@@H]1CC[C@@H](Oc2nccc3c2C(=O)OC3(C)C)CN1C(=O)c1ccc(F)cc1-n1nccn1 [Example 10, 4-{[(3R,6R)-1-{[4-fluoro-2-(2H-1,2,3-triazol-2-yl)phenyl]carbonyl}-6-methylpiperidin-3-yl]oxy}-1,1-dimethylfuro[3,4-c]pyridin-3(1H)-one]
IC50 (human orexin-2 receptor): 59 nM
IC50 (hOX1R): 10000 nM

Structure (SMILES): C[C@@H]1CC[C@@H](Oc2nccc3c2COC3=O)CN1C(=O)c1ccccc1C1(C#N)CC1 [Example 31, 1-[2-({(2R,5R)-2-methyl-5-[(1-oxo-1,3-dihydrofuro[3,4-c]pyridin-4-yl)oxy]-piperidin-1-yl}-carbonyl)-phenyl]cyclo-propane-carbonitrile]
IC50 (human orexin-2 receptor): 12 nM
IC50 (hOX1R): 1780 nM

Source: patent US9556190B2, “Piperidinyloxy lactone orexin receptor antagonists” (MERCK SHARP & DOHME CORP., priority 2013, dated 2017)
